# Activity calls are given as the source filed them.
# Legend:
# Estrogen receptor = target: T1, Estrogen receptor (Homo sapiens, UniProt P03372);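 note: potency for inhibiting coactivator peptide recruitment to the receptor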
# T1 sequence (P03372 whole entry): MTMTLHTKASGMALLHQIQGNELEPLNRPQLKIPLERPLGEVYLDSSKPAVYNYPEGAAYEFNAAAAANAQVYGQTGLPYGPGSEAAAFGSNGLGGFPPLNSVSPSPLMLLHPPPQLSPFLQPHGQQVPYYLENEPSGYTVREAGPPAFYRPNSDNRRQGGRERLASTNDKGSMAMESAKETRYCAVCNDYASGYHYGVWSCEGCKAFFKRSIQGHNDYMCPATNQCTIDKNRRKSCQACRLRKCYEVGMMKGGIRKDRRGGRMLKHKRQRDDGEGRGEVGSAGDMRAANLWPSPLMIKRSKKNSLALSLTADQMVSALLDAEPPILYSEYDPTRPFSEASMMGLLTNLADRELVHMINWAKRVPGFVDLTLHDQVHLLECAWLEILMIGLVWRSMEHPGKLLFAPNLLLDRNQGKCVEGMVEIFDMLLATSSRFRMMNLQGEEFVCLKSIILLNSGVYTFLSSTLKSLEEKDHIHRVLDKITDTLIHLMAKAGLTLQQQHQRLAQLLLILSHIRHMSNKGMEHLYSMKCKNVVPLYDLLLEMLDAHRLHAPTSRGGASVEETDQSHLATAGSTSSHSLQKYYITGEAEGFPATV
# Nonstructural protein 1 = Nonstructural protein 1 (Influenza A virus, UniProt Q194T2); assay type: functional, Influenza A virus (A/California/07/2009(H1N1))
# [1] = control 3'UTR Renilla luciferase suppression, dose response, counter-screen for Shn3 inhibitor project, cell-based, Clone20-Shn3RL, cherry-picked (AID 624133); assay type: functional
# [2] = HepG2 cell cytotoxicity, dose response, cytotoxicity control for Shn3 inhibitor project, CellTiter-Glo, cherry-picked (AID 624134); assay type: functional, cell-based
# [3] = inhibitors of intracellular T. cruzi replication, confirmation, NIH3T3 host cells, beta-gal luminescence (AID 2044); assay type: functional, cell-based;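 note: intracellular parasites grown in NIH/3T3 mouse fibroblasts as host cells; luminescent beta-galactosidase reporter signal from transgenic T. cruzi replicating inside host cells; inhibitors lower the luminescence signal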
# [4] = cytotoxicity toward NIH3T3 fibroblasts, dose response, counter-screen, cell-based, ATP luminescence, mouse fibroblasts (AID 2010); assay type: functional;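 note: cells exposed to compound for about 90 hours before reading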
# [5] = target: Luciferin 4-monooxygenase (Photinus pyralis, UniProt P08659); assay: Counter Screen for Luciferase-based Assay Positives. [Related pubchem assays: 620, 618, 411 ]
# cells [6] = assay type: functional, cell-based
# HT-1080 = assay: cytotoxicity in HT1080 fibrosarcoma cells, cell-based, fluorescence readout (AID 620); assay type: functional; conditions: Homo sapiens
# [7] = Shn3 3'UTR reporter inhibitors, dose response, cell-based, Clone20 osteoblasts, firefly luciferase, cherry-picked (AID 624132); assay type: functional;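 note: firefly luciferase luminescence from reporter carrying the Shn3 3'UTR in osteoblasts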
# cells [8] = assay type: functional, cell-based; remark: listed apart in the source
# [9] = A Cell Based Secondary Assay To Explore Cytotoxicity of Compounds that Sensitize Mycobacterium Tuberculosis to Beta-Lactam Antibiotics.; assay type: functional
# [10] = M. tuberculosis H37Rv growth inhibitors, H37Rv strain (AID 1626); assay type: functional
# Trypsin = Trypsin (Sus scrofa, UniProt P00761); assay: porcine trypsin inhibitors, dose response, selectivity assay for Rce1 protease inhibitor project, biochemical, quenched peptide fluorescence, cherry-pick (AID 488789)
# Streptococcus = assay: Group A Streptococcus viability loss, dose response, counter-screen for streptokinase expression inhibitor project, luminescence, BacTiterGlo (AID 1915); assay type: functional, organism-based;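 note: potency for reduction of bacterial viability or growth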
# Streptokinase A = target: T2, Streptokinase A (Streptococcus pyogenes serotype M1, UniProt P10520); assay: S. pyogenes streptokinase expression inhibitors, potency, dose response, plasminogen activation absorbance, OD405 (AID 1914); assay type: functional, Streptococcus pyogenes M1 GAS;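 note: secreted streptokinase activity via plasminogen activation per viability signal from cell pellet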
# T2 sequence (P10520 whole entry): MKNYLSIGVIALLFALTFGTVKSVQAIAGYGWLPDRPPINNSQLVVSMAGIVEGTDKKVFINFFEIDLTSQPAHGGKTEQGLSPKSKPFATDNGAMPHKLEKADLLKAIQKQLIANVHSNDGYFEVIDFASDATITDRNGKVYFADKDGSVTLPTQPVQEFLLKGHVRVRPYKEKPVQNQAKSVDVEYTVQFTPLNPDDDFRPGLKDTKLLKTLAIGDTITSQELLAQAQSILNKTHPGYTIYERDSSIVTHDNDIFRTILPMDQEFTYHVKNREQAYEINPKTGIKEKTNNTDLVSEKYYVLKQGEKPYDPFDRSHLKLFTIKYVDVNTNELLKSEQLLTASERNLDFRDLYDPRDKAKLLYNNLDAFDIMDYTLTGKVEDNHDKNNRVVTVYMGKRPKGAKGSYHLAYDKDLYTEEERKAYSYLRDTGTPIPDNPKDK
# [11] = tested on: Streptococcus sp. 'group A'; assay: growth inhibition of control SK(-) GAS strain, dose response, counter-screen for streptokinase expression inhibitor project, luminescence, kanamycin, BacTiterGlo, confirmation (AID 1900); assay type: functional, organism-based
# [12] = Luminescence-based dose response cell-based high throughput screening assay for cytotoxic compounds using the IEC-6 intestinal epithelial cell line. [Related pubchem assays: 1858 (Summary AID.), 1825 (Counterscreen.), 1907 (Confirmation screen.)]; assay type: functional
# Leucine aminopeptidase = target: T3, Leucine aminopeptidase (Plasmodium falciparum 3D7, UniProt Q8IL11); assay: P. falciparum M17LAP inhibitors, primary screen, biochemical, fluorogenic H-Leu-NHMec substrate, 1536-well (AID 1619); assay type: functional
# T3 sequence (Q8IL11 whole entry): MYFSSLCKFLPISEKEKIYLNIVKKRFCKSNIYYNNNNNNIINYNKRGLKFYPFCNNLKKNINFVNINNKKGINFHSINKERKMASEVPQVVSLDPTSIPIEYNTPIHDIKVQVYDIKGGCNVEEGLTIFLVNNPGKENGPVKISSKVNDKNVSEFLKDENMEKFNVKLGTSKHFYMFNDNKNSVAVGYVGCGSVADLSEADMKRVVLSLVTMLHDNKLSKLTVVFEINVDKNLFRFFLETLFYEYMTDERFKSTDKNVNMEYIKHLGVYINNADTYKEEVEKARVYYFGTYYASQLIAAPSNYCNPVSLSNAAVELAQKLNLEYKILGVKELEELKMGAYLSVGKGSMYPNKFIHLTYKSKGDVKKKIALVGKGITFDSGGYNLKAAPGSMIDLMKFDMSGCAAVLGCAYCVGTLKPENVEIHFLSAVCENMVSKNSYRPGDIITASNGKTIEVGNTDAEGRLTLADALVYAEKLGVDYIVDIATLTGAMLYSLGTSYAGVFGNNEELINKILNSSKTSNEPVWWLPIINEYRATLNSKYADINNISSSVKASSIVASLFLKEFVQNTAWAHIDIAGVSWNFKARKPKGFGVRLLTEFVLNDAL
# Aminopeptidase N = target: T4, Aminopeptidase N (Plasmodium falciparum FcB1/Columbia, UniProt O96935); assay: P. falciparum M1AAP inhibitors, biochemical, fluorogenic H-Leu-NHMec substrate, 1536-well (AID 1445); parameters: species or system Plasmodium falciparum 3D7, 3D7
# T4 sequence (O96935 whole entry): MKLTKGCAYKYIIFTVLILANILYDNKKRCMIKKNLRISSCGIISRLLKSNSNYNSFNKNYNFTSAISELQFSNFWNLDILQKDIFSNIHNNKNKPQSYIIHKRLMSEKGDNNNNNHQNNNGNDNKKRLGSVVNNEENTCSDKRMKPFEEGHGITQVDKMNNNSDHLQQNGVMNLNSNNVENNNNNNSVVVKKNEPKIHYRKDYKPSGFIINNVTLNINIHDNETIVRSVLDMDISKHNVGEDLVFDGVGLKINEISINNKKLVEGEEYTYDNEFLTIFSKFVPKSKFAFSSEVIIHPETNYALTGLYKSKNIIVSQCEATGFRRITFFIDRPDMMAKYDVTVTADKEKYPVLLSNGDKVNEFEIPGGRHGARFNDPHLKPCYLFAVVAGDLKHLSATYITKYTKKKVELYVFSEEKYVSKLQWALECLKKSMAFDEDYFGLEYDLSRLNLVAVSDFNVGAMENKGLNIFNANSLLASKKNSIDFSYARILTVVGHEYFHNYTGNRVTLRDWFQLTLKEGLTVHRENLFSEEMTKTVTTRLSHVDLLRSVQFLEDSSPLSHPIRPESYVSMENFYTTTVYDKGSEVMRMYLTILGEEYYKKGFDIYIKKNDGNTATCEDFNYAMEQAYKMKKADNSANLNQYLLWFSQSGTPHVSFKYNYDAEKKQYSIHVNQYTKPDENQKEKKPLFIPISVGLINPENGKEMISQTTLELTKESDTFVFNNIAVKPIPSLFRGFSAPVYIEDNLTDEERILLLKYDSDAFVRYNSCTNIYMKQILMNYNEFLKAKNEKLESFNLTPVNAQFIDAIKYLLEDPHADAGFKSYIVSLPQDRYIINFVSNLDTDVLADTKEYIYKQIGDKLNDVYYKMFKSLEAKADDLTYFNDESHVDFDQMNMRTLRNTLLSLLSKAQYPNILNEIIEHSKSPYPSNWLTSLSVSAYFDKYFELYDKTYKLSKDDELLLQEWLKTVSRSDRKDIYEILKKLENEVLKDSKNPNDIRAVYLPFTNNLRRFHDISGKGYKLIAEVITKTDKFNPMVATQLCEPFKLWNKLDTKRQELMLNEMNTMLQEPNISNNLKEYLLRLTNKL
# Cytochrome P450 2C19 = Cytochrome P450 2C19 (Homo sapiens, UniProt P33261); assay: Cytochrome panel assay with activity outcomes. Panel member name: p450-cyp2c19 Compounds with AC50 equal or less than 10 uM are considered active; assay type: functional; conditions: read-out: AC50
# [13] = growth suppression of PTEN-null colon cells, dose response, cell-based, HCT116 PTEN knockout (AID 1047); assay type: functional;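 note: HCT116 colon tumor cells with PTEN knocked out; cells exposed to compound for 60 hours before readout; potency for loss of cell viability measured by luminescence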
# [14] = growth suppression of beta-catenin-knockout colon cells, dose response, cell-based, HCT116, human colon tumor (AID 1045); assay type: functional;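 note: HCT116 colon tumor cells with beta catenin knocked out; cells exposed to compound for 60 hours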
# [15] = inhibitors of SNCA 5'UTR-driven reporter translation, confirmation, H4 neuroglioma cells, luminescence (AID 1988); assay type: functional, cell-based
# [16] = inhibitors of SNCA 5'UTR-driven translation, confirmation, luminescence, H4 neuroglioblastoma cells, dose confirmation (AID 2454); assay type: functional, cell-based;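 note: H4 neuroglioblastoma cells carrying an alpha-synuclein 5'UTR luciferase reporter; potency for inhibition of the luciferase signal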
# cells [17] = assay type: functional, cell-based; remark: listed apart in the source
# [18] = luciferase reporter signal reduction – luminescence, H4-C neuroglioblastoma cells, dose response (AID 2458); assay type: functional, cell-based;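 note: H4 neuroglioblastoma cells stably carrying a luciferase reporter gene fusion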
# [19] = Luminescence Cell-Based Dose Response HTS to Identify Inhibitors of 5'UTR Stem-Loop Driven Prion Protein mRNA Translation in H4 Neuroglioblastoma Cells. [Related pubchem assays: 1827 (Project Summary), 1813 (Primary HTS)]; assay type: functional
# [20] = cytotoxicity in HEK-293T cells, dose response, cytotoxicity control for TCR NF-kB inhibitor project, luminescence, T-cell screen hits (AID 489026); assay type: functional, cell-based;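 note: cells exposed to compound about 14 hours before the viability readout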
# Cytochrome P450 2C19, sequence (P33261 whole entry): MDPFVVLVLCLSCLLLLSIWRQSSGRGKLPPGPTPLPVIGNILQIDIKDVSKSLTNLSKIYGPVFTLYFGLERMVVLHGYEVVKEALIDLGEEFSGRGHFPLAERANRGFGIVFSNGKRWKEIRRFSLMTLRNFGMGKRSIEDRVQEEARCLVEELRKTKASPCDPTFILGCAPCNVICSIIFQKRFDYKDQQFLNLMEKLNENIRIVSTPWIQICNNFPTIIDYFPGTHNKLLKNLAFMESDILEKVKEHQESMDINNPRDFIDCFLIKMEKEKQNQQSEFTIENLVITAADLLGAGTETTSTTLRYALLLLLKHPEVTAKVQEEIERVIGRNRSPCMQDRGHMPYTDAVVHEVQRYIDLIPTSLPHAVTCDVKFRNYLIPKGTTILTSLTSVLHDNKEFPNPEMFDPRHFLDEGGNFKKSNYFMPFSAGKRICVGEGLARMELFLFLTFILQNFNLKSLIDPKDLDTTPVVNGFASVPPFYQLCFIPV
# Nonstructural protein 1, sequence (Q194T2 whole entry): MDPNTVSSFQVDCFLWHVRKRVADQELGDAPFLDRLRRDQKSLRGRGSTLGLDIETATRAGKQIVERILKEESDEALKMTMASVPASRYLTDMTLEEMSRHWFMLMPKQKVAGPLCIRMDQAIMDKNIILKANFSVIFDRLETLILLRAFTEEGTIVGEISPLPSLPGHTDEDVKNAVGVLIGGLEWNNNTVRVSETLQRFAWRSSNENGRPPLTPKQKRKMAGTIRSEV
# Trypsin, sequence (P00761 whole entry): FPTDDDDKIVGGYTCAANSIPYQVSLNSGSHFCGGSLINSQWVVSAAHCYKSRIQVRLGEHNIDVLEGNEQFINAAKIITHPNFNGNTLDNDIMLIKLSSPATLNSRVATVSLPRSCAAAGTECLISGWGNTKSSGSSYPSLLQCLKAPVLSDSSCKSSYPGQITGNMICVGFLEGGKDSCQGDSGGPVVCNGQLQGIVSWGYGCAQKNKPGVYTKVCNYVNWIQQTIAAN
# Luciferin 4-monooxygenase, sequence (P08659 whole entry): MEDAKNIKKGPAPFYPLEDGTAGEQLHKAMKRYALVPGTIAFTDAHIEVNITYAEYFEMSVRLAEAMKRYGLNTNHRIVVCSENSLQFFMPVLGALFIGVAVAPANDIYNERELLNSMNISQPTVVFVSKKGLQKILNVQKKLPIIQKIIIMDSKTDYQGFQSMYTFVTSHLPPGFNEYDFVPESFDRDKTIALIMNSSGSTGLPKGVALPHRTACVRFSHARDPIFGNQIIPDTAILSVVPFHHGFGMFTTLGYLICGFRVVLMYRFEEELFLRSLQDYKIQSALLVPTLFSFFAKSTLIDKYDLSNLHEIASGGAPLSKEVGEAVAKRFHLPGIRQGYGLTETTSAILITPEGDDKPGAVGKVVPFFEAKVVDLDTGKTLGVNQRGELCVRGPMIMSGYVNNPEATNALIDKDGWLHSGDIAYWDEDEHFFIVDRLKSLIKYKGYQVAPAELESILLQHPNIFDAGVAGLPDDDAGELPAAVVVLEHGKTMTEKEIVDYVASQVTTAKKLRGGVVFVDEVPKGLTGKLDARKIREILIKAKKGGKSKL
smiles,measurement,setting,value
CCC/C(=N/Nc1ccc(Cl)cc1)c1cnnc(-c2ccccc2)n1,IC50,Estrogen receptor,3.85 µM (active)
C=CCNc1nc(-c2ccccn2)nnc1-c1ccccc1,IC50,Nonstructural protein 1,1.25 µM (active)
same,AC50,[1],3.97 µM (active)
same,AC50,[2],6.36 µM (active)
same,EC50,[3],2.27 µM (active)
same,EC50,[4],5.1 µM (active)
same,EC50,[5],< 200 nM (active)
same,EC50,cells [6],7.13 µM (active)
same,EC50,HT-1080,> 50 µM (not active)
same,AC50,[7],3.17 µM (active)
same,EC50,cells [8],> 350 µM (not active)
COc1cccc(/C=N/NC(=O)NC23CC4CC(CC(C4)C2)C3)c1O,CC50,[9],23.3 µM (active)
O=C(CCC(=O)Nc1ccc(Oc2ccccc2)cc1)NCCO,IC50,[10],> 100 µM (active)
C[C@@H]1CC=C[C@H]2[C@H]1C(=O)N(Cc1ccccc1)[C@H]2c1ccc(/C=C/c2ccccc2)cc1F,CC50,[9],> 40 µM (active)
CCOc1ccc2[nH]c3c(N4CCc5ccccc5C4)ncnc3c2c1,AC50,Trypsin,6.04 µM (active)
same,EC50,Streptococcus,19.9 µM (active)
same,EC50,Streptokinase A,> 150 µM (not active)
same,EC50,[11],10.4 µM (active)
same,IC50,[12],5.99 µM (active)
COc1ccc(NC(=O)CC(Cc2ccccc2)C(=O)O)cc1 (stereo unspecified),IC50,Leucine aminopeptidase,18.7 µM (active)
Cc1ncc(CC(=O)n2cc(C(=O)c3cc(F)ccc3O)cn2)s1,IC50,Leucine aminopeptidase,71.1 µM (active)
COCCCn1c(=N)c(C(=O)NCC2CCCO2)cc2c(=O)n3cccc(C)c3nc21 (stereo unspecified),IC50,Aminopeptidase N,78.4 µM (active)
Oc1c(/C=N/c2ccc(Oc3ccccc3)cc2)cnn1-c1cccc(Cl)n1,AC50,Cytochrome P450 2C19,11.2 µM (inconclusive)
same,IC50,[10],> 100 µM (active)
Cc1nccc(-c2cccc(N/N=C(\C#N)C(=O)c3ccccc3)c2)n1,IC50,Aminopeptidase N,16 µM (active)
COc1ccc(-c2c(C(F)(F)F)oc3cc(OCC(=O)Nc4ccccc4C(F)(F)F)ccc3c2=O)cc1OC,EC50,[13],3.45 µM (active)
same,EC50,[14],3.72 µM (active)
same,CC50,[9],10.9 µM (active)
COc1cccc(OCc2nnc(SCC(=O)NCc3ccco3)n2CCc2ccccc2)c1,IC50,Estrogen receptor,> 50 µM (not active)
CC/C=C/CC(=O)N[C@@H](c1ccccc1)[C@@H](O)C(=O)O[C@H]1C[C@@]2(O)[C@@H](OC(=O)c3ccccc3)C3[C@](C)(C(=O)[C@H](OC(C)=O)C(=C1C)C2(C)C)[C@@H](O)C[C@H]1OC[C@@]31OC(C)=O (stereo partly specified),EC50,[15],< 100 nM (active)
same,EC50,[16],21 nM (active)
same,EC50,cells [17],307 nM (active)
same,EC50,[18],62 nM (active)
same,EC50,[19],< 100 nM (active)
same,IC50,[20],> 80 µM (inactive)
same,IC50,[12],0.0795 µM (active)

# Source: ChEMBL document CHEMBL1201862, “PubChem BioAssay data set” (2004)
